Legend:
[1] = test system: cardiomyocytes isolated from mdx mice; test: NOX2-mediated ROS production (DCF-DA, confocal) in mdx cardiomyocytes; format: cell-based, mouse; conditions: 1 µM, vs control
Excerpt: Cardiomyocytes were isolated from mdx mice (C57BL/10ScSn-DMDmdx/J, stock number 001801M, Jackson Laboratories, Bar Harbor, […], USA). Male mdx mice of 19 months of age were used, which were housed in individual cages with water and food ad libitum. All the procedures were adjusted to the “Guide for the Care and Use of Laboratory Animals” (1996) of the National Institute of Health and were approved by the Institutional Committee for Animal Care and Use of the Universidad de Talca. Mice were pre-medicated with heparin i.p. (200U.) and then sacrificed by cervical dislocation. The heart was rapidly removed, cannulated through the aorta, and retrogradely perfused in a steady flow (2 mL/min) at 37 °C. The hearts were initially perfused for 10 min with a Ca^2+-free bicarbonate buffer solution containing (in mM) 120 NaCl; 5.4 KCl; 1.2 MgSO4; 1.2 NaH2PO4; 5.6 glucose; 20 NaHCO3; 10 BDM, and 5 taurine, bubbled with a 95% O2–5% CO2 mixture. Enzyme digestion was performed with collagenase type II (1 mg/mL; Worthington Biochemical Corp., Lakewood, NJ, USA) and protease type XIV (0.1 mg/mL; Sigma-Aldrich) as previously reported. Isolated cardiomyocytes were transferred to 1.5 mL Eppendorf tubes and preincubated with the heteroaryl acrylonitrile compounds.
Cardiomyocytes isolated from mdx mice were transferred to Eppendorf tubes to be incubated with 1 μM of the indole heteroaryl-acrylonitrile derivatives for 30 min, protected from light, at room temperature. VAS2870 (20 μM) was used as a positive control for NOX2 inhibition. 2′,7′-dichlorofluorescein diacetate (DCF-DA) (10 μM) was then added and incubated for 15 min. Subsequently, it was allowed to sediment by gravity to remove the supernatant, and the pellets obtained were in a phosphate saline solution (PBS). 200 μL of the cell suspension were placed on pre-treated polylysine slides (Thermo Fischer, USA) and fixed with 2% paraformaldehyde (Sigma-Aldrich®, St. Louis, MO, USA) for 10 min at 4 °C. […] From the acquired images, the fluorescence intensity was quantified at 495 nm, and the data were reported as fluorescence intensity per pixel.

NADPH oxidase (NOX2) = molecular target: T1, NADPH oxidase (NOX2) (Homo sapiens, UniProt P14598); test: NOX2 activity by cytochrome C reduction in HL-60 membrane preparations; format: biochemical; conditions: HL-60 membrane homogenates, increasing concentrations
T1 construct: HL-60 cells expressed the components of NOX2, including gp91, p22^phox, p47^phox, and p67^phox; endogenous in cells; whole cells in A1, membrane preparations in A3 and A4
T1 sequence (P14598 1-390): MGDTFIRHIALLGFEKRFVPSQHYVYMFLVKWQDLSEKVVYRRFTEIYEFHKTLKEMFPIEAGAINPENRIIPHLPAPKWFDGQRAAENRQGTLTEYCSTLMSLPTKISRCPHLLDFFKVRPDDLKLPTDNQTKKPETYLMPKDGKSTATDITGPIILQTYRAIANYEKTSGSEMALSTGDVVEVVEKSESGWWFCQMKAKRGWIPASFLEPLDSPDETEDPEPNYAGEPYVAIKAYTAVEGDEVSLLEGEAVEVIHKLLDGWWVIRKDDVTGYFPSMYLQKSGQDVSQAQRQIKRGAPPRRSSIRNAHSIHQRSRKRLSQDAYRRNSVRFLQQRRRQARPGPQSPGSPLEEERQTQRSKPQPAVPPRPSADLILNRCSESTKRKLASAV
Method: Neutrophil-differentiated HL-60 cells (2 × 10^6 cells/mL) […], then PMA 0.8 μM was added and incubated for 1 h to induce the activation of the enzyme NADPH oxidase. As a positive inhibition control, VAS2870 (20 μM) was used. Another two controls were performed: one with cells activated by PMA in the presence of DMSO, and the other (NA, non-activated) with cells in the absence of PMA and the acrylonitrile compounds. In 15 mL conical tubes, 5 mL of cell suspension from each treatment and control condition was transferred at 2 × 10^6 cells/mL and centrifuged at 1000 rpm at 4 °C for 10 min. […]
The membrane preparations from the neutrophil-differentiated HL-60 cells, treated with the different indole heteroaryl-acrylonitrile derivatives, were re-suspended in PBS with 10 μL/mL of the protease inhibitor cocktail (in mM): 104 (4-(2-aminoethyl)benzenesulfonylfluoride hydrochloride); 1.4 N-(trans-epoxysuccinyl)-L-leucine-4-guanidinobutyric; 2 leupeptin hemisulfate; 4 bestatin hydrochloride; 1.5 pepstatin A; and 80 μM aprotinin. Total proteins were quantified by the bicinchoninic acid (BCA) method using the commercial kit BCA™ (Thermo Scientific Pierce™, Rockford, IL, USA), using BSA as a standard. […] The reaction was monitored at 550 nm for 30 min at 25 °C using PBS as a blank.

Row | Structure (SMILES) | DCF fluorescence intensity, NOX2-derived ROS (in words) [1] | superoxide production, cytochrome C reduction (in words) (NADPH oxidase (NOX2))
1 | N#C/C(=C\c1cc(-c2ccccc2)on1)C(=O)c1c[nH]c2ccccc12 [Compound C6] | significant decrease in fluorescence intensity | reduced superoxide production in a concentration-dependent manner
2 | N#C/C(=C\c1ccncc1)C(=O)c1c[nH]c2ccccc12 [Compound C14] | significant decrease in fluorescence intensity | reduced superoxide production in a concentration-dependent manner

Reference: publication PMC10376059, “New NADPH Oxidase 2 Inhibitors Display Potent Activity against Oxidative Stress by Targeting p22^phox-p47^phox Interactions” (Antioxidants, 2023)
